Paper PMC11004067, “Identification and characterization of a calcium-binding peptide from salmon bone for the targeted inhibition of α-amylase in digestion” (Food Chemistry: X, 2024)

Key:
3 T3-L1 preadipocytes [1] = assay: Cell viability (MTT) in 3 T3-L1 preadipocytes; assay type: cell-based; conditions: 24 h, 1 to 100 μg/mL
Procedure: With slight modifications based on the method ([Cui et al., 2019]). MTT method was used to assess the proliferative effects of different concentrations of orlistat, SBTH and PIE on 3 T3-L1 preadipocytes. Cells were treated with different samples for 24 h. Finally, the absorbance at 490 nm was measured using a Microplate Reader (Synergy H1, BioTek, USA).

[2] = Ca-binding capacity (colorimetric Ca kit); conditions: 5 mg sample, 1 mL 5 mM CaCl2, 2 mL PBS 20 mM pH 7, 37 °C 1 h; ranking in words, Fig. 1C
Procedure: The Ca-binding capacities of SBPH, SBTH, and SBNPH were determined according to the previous study ([Choi, Jung, Choi, Kim, & Ha, 2005]). 5 mg lyophilized powder of SBPH, SBTH, and SBNPH, was mixed with 1 mL of 5 mM CaCl2 and 2 mL of phosphate-buffered saline (PBS, 20 mM, pH = 7). The mixture was stirred at 37 °C pH = 7 for 1 h, followed by centrifugation at 5000 rpm for 10 min. The calcium content in the supernatant was determined using colorimetry with Ca assay kits (JianCheng, Nanjing, China).

α-amylase [3] = assay: α-amylase inhibition rate (DNS method, soluble starch); assay type: biochemical; conditions: 100 μg/mL; α-amylase 4 units/mL, PBS pH 6.9, 37 °C 10 min, 1% soluble starch 5 min, DNS 540 nm; mean, n = 3
Procedure: (§1) The activity of α-amylase was determined spectrophotometrically using soluble starch as the substrate and 3,5-dinitrosalicylic acid (DNS) as the chromogenic agent. α-amylase solution (4 units/mL, 0.25 mL) and 0.25 mL each of SBPH, SBTH, and SBNPH (each at 1 μg/mL, 10 μg/mL, 100 μg/mL, and 1000 μg/mL concentrations) were added to 0.5 mL of PBS (pH 6.9, 0.2 mol/L) to make test solutions. These solutions were then incubated at 37 °C for 10 min. Then, 0.5 mL of 1% soluble starch solution was added to each test solution to continue the reaction for 5 min. Thereafter, l mL of DNS reagent was added to each solution, and the mixtures were boiled for 10 min. After the dilution of five times, the absorbance value was measured at 540 nm ([Wu et al., 2019]). The inhibition of the activity of α-amylase by salmon bone hydrolysate was calculated as using the formula (1):(1) I%=[1−B−b/A−a×100% where I represents the inhibition rate of α-amylase by salmon bone hydrolysates. A represents the absorbance value of the blank tube, a represents the absorbance value of the blank control tube, B represents the absorbance value of the inhibition tube, and b represents the absorbance value of the background control tube.

α-amylase [4] = assay: α-amylase inhibition during in vitro simulated gastrointestinal digestion; assay type: biochemical; conditions: 0-240 min, DNS method
Procedure: as §1, with “The inhibition of the activity of α-amylase by salmon bone hydrolysate was calculated as using the formula (1):(1) I%=[1−B−b/A−a×100% where I represents the inhibition rate of α-amylase by salmon bone hydrolysates.” left out
A gastrointestinal digestion simulation test was performed according to a previously reported method ([Brodkorb et al., 2019]). Samples were assessed at 0, 10, 30, 60, 90, 120, 130, 150, 180, 210, and 240 min. The inhibition rates of SBPH, SBTH, and SBNPH for α-amylase were determined by the DNS method.

α-amylase [5] = assay: α-amylase conformation: secondary structure content by circular dichroism; assay type: biochemical; conditions: 1-1000 μg/mL
Procedure: The effect of peptides on the secondary structure of α-amylase was analyzed by circular dichroism. α-Amylase was reacted with the following different concentrations of SBPH, SBTH, and SBNPH: 1, 10, 100, and 1000 μg/mL. The test parameters were as follows: 1 mm quartz cuvette; scanning wavelength range = 190– 250 nm; bandwidth = 2 nm; scanning speed = 100 nm/min; and response time = 1 s. α-Amylase without SBPH, SBTH, and SBNPH treatment was used as the blank control, and it was analyzed under the same conditions. The experimental results were obtained by subtracting the buffer background from the scanned data ([Zhang & Ma, 2013]).

α-amylase [6] = assay: DLS analysis of α-amylase particle size / hydrodynamic radius; assay type: biochemical; conditions: α-amylase 4 units/mL, substance 1-1000 μg/mL, 24 h incubation
Procedure: The α-amylase solution (4 units/mL) and SBPH, SBTH, and SBNPH solutions (each at 1, 10, 100, and 1000 μg/mL concentrations) were prepared. Filtration was performed using a 0.45-μm filter. The α-amylase solution was incubated with different concentrations of SBPH, SBTH, and SBNPH solutions for 24 h. Each sample (1 mL) was analyzed using the DLS apparatus. The particle size variation of α-amylase in each solution was analyzed. The α-amylase alone solution was used as a positive control under the same conditions ([Xiong et al., 2016]).

α-amylase [7] = assay: Kinetics of α-amylase inhibition (Lineweaver-Burk); assay type: biochemical; conditions: 37 °C
Procedure: The kinetics of α-amylase inhibition was performed with minor modifications as previously reported ([Cardullo et al., 2020]). In the reaction system, 1 mL of soluble starch solution (10 mg/mL) and 1 mL of different concentrations of SBPH, SBTH, and SBNPH (concentrations of 1, 10, 100, and 1000 μg/mL, respectively) were added. a temperature bath was maintained at 37 °C for 30 min. Different concentrations of α-amylase solution were added. The change in absorbance value of the system was determined. Plot the rate of enzymatic reaction versus α-amylase concentration.
To the reaction system, 1 mL of soluble starch solution of different concentrations (0, 5, 10, 15, 20, 25 mg/mL) was added. The effects of different concentrations of SBPH, SBTH and SBNPH on α-amylase activity were determined at 37 °C in a water bath. Finally, the inverse of the concentration of soluble starch solution was used as the horizontal coordinate and plotted with Lineweaver-Burk plots to determine the type of inhibition of α-amylase by SBPH, SBTH and SBNP. The general equation for reversible inhibition is given below: v=vmaxS/Km1+i/Kic+1+i/Kiu 1/v=Km+s/vmaxs+iKm/Kic+s/Kiu/vmaxs 1/v=Km/vmax1+i/Kic+s/vmax1+i/Kiu where Km is the Michaelis-menten constand (mg/mL), v denotes the initial reaction rate (U, mm/min), S denotes the substrate concentration (mg/mL), i denotes the content of the inhibitor concentration (U, mg/mL), Kic denotes the inhibitory constant of the competitive inhibitor, and Kiu denotes the inhibitory constant of the non-competitive inhibitor.

3 T3-L1 preadipocytes [8] = assay: Cellular triglyceride content; assay type: cell-based; conditions: 1000 μg/mL, with Inducers I and II
Procedure: (§2) With minor modifications based on the method ([Lee et al., 2023]). 3 T3-L1 Preadipocytes were cultured at 37 °C and 5% CO2 until 80% fusion, passaged and differentiated. After induction with inducers for 8d, the cells were then cultured with DMEM containing 1% PS and 10% FBS for 4d.
Cellular triglyceride content (TG) was measured using a kit (JianCheng, Nanjing, China). Differentiated adipocytes were treated with different samples in 6-well plates according to the manufacturer's instructions. Cells were first washed with PBS, followed by the addition of ethanol. The cells were then transferred into centrifuge tubes using a cell scraper. Subsequently, the cells were broken down by ultrasound in an ice water bath. […] was measured using a specialized kit.

3 T3-L1 preadipocytes [9] = assay: Total cellular cholesterol content; assay type: cell-based; conditions: 1000 μg/mL
Procedure: as §2
Total cellular cholesterol content was measured using a kit (JianCheng, Nanjing, China). The […] enzymatic method was used according to the manufacturer's instructions. Protein concentration was measured using the BCA protein assay kit (Solarbio, Beijing, China).

[10] = Effect of PIE on body weight in mice; assay type: in vivo; conditions: 30 mg/kg by gavage, 12 weeks, female BALB/c mice
Procedure: The animal study was approved by the Animal Ethics Committee of Dalian Polytechnic University (protocol ID SYXK2017–0005) per the guidelines of the National Institutes of Health Laboratory Animals for Animal Care. 10-week-old female BALB/c mice (L20160258, Dalian Medical University, Liaoning, China) were acclimatized with normal chow for 2 d, and were randomly separated 2 groups (n = 8): the control group (saline) and the PIE group (at a dose of 30 mg PIE/kg body weight). Both groups were maintained on a basal diet throughout the study. Given that mice are nocturnal feeders, gavage was performed between 5:00–6:00 PM. Body weights were measured and recorded at 7-day intervals. The feed and water were provided ad libitum to mice. Changes in body weight were analyzed after 12 weeks of continuous gavage ([Pinzón-García et al., 2018]).

[11] = ref Xu et al., 2020, 2019, 2022; cited from earlier work
Excerpt: Peptidomics facilitates the comprehensive characterization of peptides on a large scale. This analytical approach offers a time-efficient means of generating an extensive array of peptide fragments ([Martini, Solieri, & Tagliazucchi, 2021]). Herein, the peptide sequences were retrieved from an established database using MASCOT, and active peptide sequences with Ca-binding capacities were identified. The peptide sequences from SBTH were identified in Table S1 (Supplementary materials), along with information on their amino acid sequences, lengths, and molecular weights. A total of 6505 peptide ...

[12] = ref Xu et al., 2020, 2019, 2022; cited from earlier work; remark: listed apart in the source
[13] = Lineweaver-Burk double inverse plots, soluble starch 0-25 mg/mL

CCCCCCCCCCC[C@@H](C[C@@H]1OC(=O)[C@H]1CCCCCC)OC(=O)[C@H](CC(C)C)NC=O [orlistat]
cytotoxicity (3 T3-L1 preadipocytes [1]): no cytotoxicity

IEELEEELEAER [PIE, Ile-Glu-Glu-Leu-Glu-Glu-Glu-Glu-Leu-Glu-Ala-Glu-Arg, peptide … from SBTH, purity 94.74%, synthesized at ChinaPeptides]
calcium-binding capacity / affinity [2]: greatest affinity for calcium
α-amylase inhibition rate (α-amylase [3]): 58.81%
α-amylase inhibition rate with simulated digestion time (α-amylase [4]): the inhibition rate decreased significantly with the increasing duration of gastrointestinal digestion
change of α-amylase secondary structure with increasing concentration (α-amylase [5]): a decrease in α-helix content and an increase in β-fold structures
hydrodynamic radius of α-amylase (α-amylase [6]): increased gradually
KI (α-amylase [7]; [13]): 3290 µg/mL
KIS (α-amylase [7]; [13]): 3.97 mg/mL
reversibility of α-amylase inhibition (α-amylase [7]; enzyme reaction rate against α-amylase concentration): reversible
TG content reduced to (3 T3-L1 preadipocytes [8]): 52.11%
TC content decreased to (3 T3-L1 preadipocytes [9]): 54.35%
body weight change ([10]; n = 8): no significant weight change
weight gain over three months ([10]; n = 8, basal diet, control group 33.65%): 6.61%
calcium-binding capability [11]: pronounced calcium-binding capability
activity and stability in the gastrointestinal tract [12]: robust activity and stability within the gastrointestinal tract
